The values that follow come from ChEMBL document CHEMBL3045668, “Synthesis, antioxidant, and antibacterial studies of phenolic esters and amides of 2-(1-benzofuran-2-yl) quinoline-4-carboxylic acid” (Med Chem Res, 2013).

≈ marks a conversion by molar mass, not a printed value. A value given as a limit tells only on which side of the number the result lay.

Data set [1] relates to Ochrobactrum. Kind of data set: Antibacterial activity against Ochrobactrum at 1 mg/ml after 24 hr by agar well diffusion assay. Format: functional. The note with it: read-out: IZ. For orientation: In agar diffusion tests the substance spreads into inoculated agar from a disc or well.
Data set [2] deals with Pantoea dispersa. The data set is described as follows: Antibacterial activity against Pantoea dispersa at 1 mg/ml after 24 hr by agar well diffusion assay. The class given is functional. The note with it: read-out: IZ.
Data set [3] concerns Enterococcus. The data set is described as follows: Antibacterial activity against Enterococcus after 18 to 20 hr by serial broth dilution method. Format: functional. A general note: Dilution methods test growth across graded concentrations, often in twofold steps.
In data set [4] the test system is Staphylococcus aureus. The data set is described as follows: Antibacterial activity against Staphylococcus aureus after 18 to 20 hr by serial broth dilution method. The class given is functional.
The test system of data set [5] is Ochrobactrum. Kind of data set: Antibacterial activity against Ochrobactrum after 18 to 20 hr by serial broth dilution method. The class given is functional.
Data set [6] relates to Pantoea dispersa. Kind of data set: Antibacterial activity against Pantoea dispersa after 18 to 20 hr by serial broth dilution method. Format: functional.
Data set [7] deals with Staphylococcus aureus. Kind of data set: Antibacterial activity against Staphylococcus aureus at 1 mg/ml after 24 hr by agar well diffusion assay. The note with it: read-out: IZ. Format: functional.
Data set [8] deals with Enterococcus. Kind of data set: Antibacterial activity against Enterococcus at 1 mg/ml after 24 hr by agar well diffusion assay. Format: functional. The note with it: read-out: IZ.
Data set [9] concerns Radical scavenging activity. Kind of data set: Antioxidant activity assessed as DPPH radical scavenging activity […] after 30 min by spectrophotometric analysis. The class given is functional. On the technique in general: DPPH is a stable violet radical that fades when it is reduced.
Data set [10] in a line: Metal chelating activity assessed as inhibition of Fe2+-ferrozine complex at 0.5 to 2 mg/ml after 10 min by spectrophotometric analysis. The class given is physicochemical.

As to `O=C(c1cc(-c2cc3ccccc3o2)nc2ccccc12)N1CCOCC1`, the zone of inhibition at 1000 µg/mL with Ochrobactrum [1] amounted to 11 mm; with Pantoea dispersa [2], 13 mm; in the data set with Staphylococcus aureus [7], 10 mm; in the data set with Enterococcus [8], 13 mm. For the same molecule, the MIC (usually the lowest concentration that inhibits growth of the organism) is 120 µg/mL (≈ 335 µM) in the data set with Enterococcus [3], > 500 µg/mL in the data set with Staphylococcus aureus [4], 500 µg/mL (≈ 1400 µM) in the data set on Ochrobactrum [5] and 250 µg/mL (≈ 698 µM) in the data set on Pantoea dispersa [6].
Take `Cc1ccc(OC(=O)c2cc(-c3cc4ccccc4o3)nc3ccccc23)cc1`: the zone of inhibition at 1000 µg/mL in the data set with Ochrobactrum [1] amounted to 20 mm; in the data set on Pantoea dispersa [2], 13 mm; with Staphylococcus aureus [7] it was 19 mm; in the data set with Enterococcus [8], 19 mm. The MIC came out at 60 µg/mL (≈ 158 µM) against Enterococcus [3], 60 µg/mL (≈ 158 µM) in the data set with Staphylococcus aureus [4], 60 µg/mL (≈ 158 µM) with Ochrobactrum [5] and 250 µg/mL (≈ 659 µM) against Pantoea dispersa [6]. In data set [9], the IC50 (commonly the midpoint of a concentration-inhibition curve) worked out at 49.5 µg/mL (≈ 130 µM). In addition, the “inhibition (INH)” value in [10] is listed as “Active”.
As to `O=C(Oc1ccc2ccccc2c1)c1cc(-c2cc3ccccc3o2)nc2ccccc12`, the zone of inhibition at 1000 µg/mL with Ochrobactrum [1] is 12 mm; with Pantoea dispersa [2] it was 12 mm; in the data set with Staphylococcus aureus [7] it was 12 mm; in the data set on Enterococcus [8], 10 mm. Also, the MIC against Enterococcus [3] is > 500 µg/mL; against Staphylococcus aureus [4] it was 500 µg/mL (≈ 1200 µM); in the data set on Ochrobactrum [5] it was > 500 µg/mL; in the data set on Pantoea dispersa [6], 250 µg/mL (≈ 602 µM). In addition, in data set [9], the IC50 was found to be 15.6 µg/mL (≈ 37.5 µM). Also, the “inhibition (INH)” value in [10] is listed as “Active”.
Consider `O=C(Oc1ccccc1Cl)c1cc(-c2cc3ccccc3o2)nc2ccccc12`, for which the zone of inhibition at 1000 µg/mL in the data set on Ochrobactrum [1] amounted to 14 mm; with Pantoea dispersa [2] it was 16 mm; in the data set on Staphylococcus aureus [7], 12 mm; with Enterococcus [8] it was 10 mm. Also, the minimal inhibitory concentration (MIC) in the data set on Enterococcus [3] was 500 µg/mL (≈ 1250 µM); against Staphylococcus aureus [4], 500 µg/mL (≈ 1250 µM); in the data set on Ochrobactrum [5], 250 µg/mL (≈ 625 µM); against Pantoea dispersa [6], 120 µg/mL (≈ 300 µM). Also, the IC50 in data set [9] was > 100 µg/mL.
Consider `O=C(Oc1ccc(Cl)cc1Cl)c1cc(-c2cc3ccccc3o2)nc2ccccc12`, for which the zone of inhibition at 1000 µg/mL with Ochrobactrum [1] came out at 14 mm; in the data set on Pantoea dispersa [2], 16 mm; with Staphylococcus aureus [7], 14 mm; in the data set on Enterococcus [8] it was 11 mm. Also, the minimum inhibitory concentration (MIC) against Enterococcus [3] came out at 250 µg/mL (≈ 576 µM); in the data set on Staphylococcus aureus [4], 250 µg/mL (≈ 576 µM); against Ochrobactrum [5] it was 120 µg/mL (≈ 276 µM); in the data set on Pantoea dispersa [6], 120 µg/mL (≈ 276 µM).
`CC1(C)S[C@@H]2[C@H](NC(=O)[C@H](N)c3ccccc3)C(=O)N2[C@H]1C(=O)O` [AMPICILLIN]: the zone of inhibition at 1000 µg/mL came out at 21 mm with Ochrobactrum [1], 20 mm in the data set on Pantoea dispersa [2], 20 mm in the data set on Staphylococcus aureus [7] and 24 mm in the data set on Enterococcus [8]. Also, the MIC against Enterococcus [3], in the data set on Staphylococcus aureus [4], in the data set on Ochrobactrum [5] and in the data set on Pantoea dispersa [6] was 60 µg/mL (≈ 172 µM) each time.
As to `Cc1ccccc1OC(=O)c1cc(-c2cc3ccccc3o2)nc2ccccc12`, the zone of inhibition at 1000 µg/mL was 18 mm in the data set on Ochrobactrum [1], 19 mm in the data set with Pantoea dispersa [2], 17 mm in the data set with Staphylococcus aureus [7] and 16 mm in the data set with Enterococcus [8]. Further, the MIC in the data set with Enterococcus [3] is 60 µg/mL (≈ 158 µM); against Staphylococcus aureus [4] it was 60 µg/mL (≈ 158 µM); against Ochrobactrum [5] it was 25 µg/mL (≈ 65.9 µM); with Pantoea dispersa [6] it was 120 µg/mL (≈ 316 µM).
Turning to `O=C(Oc1c(Cl)cc(Cl)cc1Cl)c1cc(-c2cc3ccccc3o2)nc2ccccc12`, the zone of inhibition at 1000 µg/mL with Ochrobactrum [1] came to 12 mm; with Pantoea dispersa [2] it was 14 mm; in the data set with Staphylococcus aureus [7], 12 mm; in the data set on Enterococcus [8], 10 mm. Also, the MIC with Enterococcus [3] was 500 µg/mL (≈ 1070 µM); against Staphylococcus aureus [4], 500 µg/mL (≈ 1070 µM); in the data set on Ochrobactrum [5], 500 µg/mL (≈ 1070 µM); in the data set on Pantoea dispersa [6], 250 µg/mL (≈ 533 µM). Moreover, in data set [9], the IC50 was 24.34 µg/mL (≈ 51.9 µM).
Take `Cc1nccn1C(=O)c1cc(-c2cc3ccccc3o2)nc2ccccc12`: the zone of inhibition at 1000 µg/mL in the data set with Ochrobactrum [1] came out at 12 mm; in the data set with Pantoea dispersa [2], 15 mm; in the data set with Staphylococcus aureus [7], 8 mm; in the data set with Enterococcus [8], 9 mm. The MIC against Enterococcus [3] is > 500 µg/mL; with Staphylococcus aureus [4], > 500 µg/mL; against Ochrobactrum [5], 250 µg/mL (≈ 707 µM); in the data set with Pantoea dispersa [6] it was 250 µg/mL (≈ 707 µM).
For the molecule `O=C(Oc1cccc2ccccc12)c1cc(-c2cc3ccccc3o2)nc2ccccc12`, the zone of inhibition at 1000 µg/mL with Ochrobactrum [1] came to 11 mm; in the data set with Pantoea dispersa [2], 15 mm; in the data set on Staphylococcus aureus [7] it was 14 mm; with Enterococcus [8] it was 13 mm. Besides, the MIC in the data set on Enterococcus [3] is 500 µg/mL (≈ 1200 µM); in the data set on Staphylococcus aureus [4], 250 µg/mL (≈ 602 µM); in the data set on Ochrobactrum [5] it was 500 µg/mL (≈ 1200 µM); against Pantoea dispersa [6], 120 µg/mL (≈ 289 µM). Also, in data set [9], the IC50 stood at 45.6 µg/mL (≈ 110 µM). For the same molecule, in [10], the “inhibition (INH)” value was “Active”.
Turning to `O=C(c1cc(-c2cc3ccccc3o2)nc2ccccc12)N1CCCCC1`, the zone of inhibition at 1000 µg/mL in the data set with Ochrobactrum [1] worked out at 9 mm; in the data set with Pantoea dispersa [2], 10 mm; in the data set on Staphylococcus aureus [7] it was 11 mm; with Enterococcus [8], 7 mm. Further, the MIC with Enterococcus [3], against Staphylococcus aureus [4], in the data set on Ochrobactrum [5] and against Pantoea dispersa [6] was > 500 µg/mL throughout.
For `O=C(Oc1ccc(Cl)cc1)c1cc(-c2cc3ccccc3o2)nc2ccccc12`, the zone of inhibition at 1000 µg/mL with Ochrobactrum [1] was 17 mm; in the data set on Pantoea dispersa [2], 18 mm; with Staphylococcus aureus [7], 17 mm; with Enterococcus [8], 14 mm. Moreover, the MIC in the data set with Enterococcus [3] worked out at 120 µg/mL (≈ 300 µM); with Staphylococcus aureus [4], 120 µg/mL (≈ 300 µM); with Ochrobactrum [5], 60 µg/mL (≈ 150 µM); against Pantoea dispersa [6], 60 µg/mL (≈ 150 µM). Also, the “inhibition (INH)” value in data set [10] was “Active”.
Turning to `O=C(Oc1ccc(Br)cc1)c1cc(-c2cc3ccccc3o2)nc2ccccc12`, the zone of inhibition at 1000 µg/mL worked out at 15 mm in the data set with Ochrobactrum [1], 14 mm with Pantoea dispersa [2], 18 mm with Staphylococcus aureus [7] and 16 mm with Enterococcus [8]. Further, the minimal inhibitory concentration (MIC) in the data set on Enterococcus [3] stood at 60 µg/mL (≈ 135 µM); against Staphylococcus aureus [4], 60 µg/mL (≈ 135 µM); with Ochrobactrum [5] it was 250 µg/mL (≈ 563 µM); with Pantoea dispersa [6], 500 µg/mL (≈ 1130 µM). Further, in data set [10], the “inhibition (INH)” value was “Active”.
As for `O=C(Oc1ccccc1)c1cc(-c2cc3ccccc3o2)nc2ccccc12`, the zone of inhibition at 1000 µg/mL was 16 mm with Ochrobactrum [1], 18 mm in the data set on Pantoea dispersa [2], 16 mm in the data set on Staphylococcus aureus [7] and 12 mm with Enterococcus [8]. For the same molecule, the MIC is 120 µg/mL (≈ 328 µM) against Enterococcus [3], 60 µg/mL (≈ 164 µM) against Staphylococcus aureus [4], 60 µg/mL (≈ 164 µM) with Ochrobactrum [5] and 120 µg/mL (≈ 328 µM) against Pantoea dispersa [6]. For the same molecule, the “inhibition (INH)” value in data set [10] is reported as “Active”.
